Assay results taken from patent US7994127B2, “Treatment of rett syndrome” (Massachusetts Institute of Technology, priority 2007, dated 2011).
Entries after “also recorded” stand apart in the source; their conditions may differ.

Key:
synaptic transmission = assay: Synaptic transmission during direct application of the molecules; format: cell-based, mouse; settings: direct application of the molecule
Source text: rhIGF1 produced a similar improvement as (1-3)IGF-1 in all maturational signatures measured, including (A) synaptic transmission levels, and (B) circuit stability (by preventing ocular dominance plasticity) in P60 MeCP2 KO mice.
The above data focused on the (1-3)IGF-1 fragment of IGF1 to promote IGF1 signaling. We also have tested the effect of the full-length IGF1 peptide already approved for pediatric administration in human patients (for short stature indications). We have verified a correspondence in the effects of (1-3)IGF-1 and recombinant human IGF1 (rhIGF1).

Overall brain weight = format: in vivo, mouse; settings: as a result of knockout and treatment (Discussion)
[1] = test system: layer 5 pyramidal neurons of MeCP2−/y mice; assay: Intracellular whole-cell recordings of spontaneous EPSCs in acute cortical slices; format: ex vivo, mouse
Procedure: (§1) (1-3)IGF-1 treatment: For the survival measurements, the nocturnal activity analysis and the immunoblot analysis, (1-3) IGF-1 (Bachem Biosciences # H22468) was administered daily via intra-peritoneal injections (0.01 mg/g body weight, vehicle=saline, 0.01% BSA). The treatment was started at P15 and maintained throughout the course of the experiments. For intracellular physiology experiments, the mice were injected daily (0.01 mg/g body weight, vehicle=saline, 0.01% BSA) for 2 weeks, from P15 to P28-P32 when they were used for acute slice preparation. For optical imaging experiments, mice were injected with (1-3) IGF-1 (0.02 mg/g body weight, vehicle=saline, 0.01% BSA) daily from the day of the lid suture to the day of imaging. Slice physiology preparation: Coronal sections (300 μm thick) at or near sensorimotor cortex were cut in <4° C. ACSF using a Vibratome. Slices were incubated at 37° C. for 20 minutes after slicing, and at room temperature for the remainder of the experiment. Slices were transferred to a Warner chamber and recordings were taken from visually identified pyramidal neurons located in layer 5. Artificial cerebral spinal fluid (ACSF) contained 126 mM NaCl, 25 mM NaHCO3, 1 mM NaHPO4, 3 mM KCl, 2 mM MgSO4, 2 mM CaCl2, and 14 mM dextrose, was adjusted to 315-320 mOsm and 7.4 pH, and was bubbled with 95% O2/5% CO2. The intracellular pipette solution contained 100 mM potassium gluconate, 20 mM KCl, 10 mM HEPES, 4 mM MgATP, 0.3 mM NaGTP, and 10 mM Na-phosphocreatine. […] Cells were visualized with an Achroplan 40× water-immersion lens with infrared-DIC optics (Zeiss) and detected with an infrared camera (Hamamatsu) projecting to a video monitor. […] Then in current clamp ˜10 pulses (500 ms, 40-140 pA at 10 pA increments), were applied to quantify evoked firing rates and cellular excitability. […] Analysis was performed using a custom software package written in Matlab, with all events detected according to automated thresholds and blindly verified for each event individually by the experimenter. […]

[2] = test system: neurons in the CA3 region of the hippocampus; assay: Neuron soma size in hippocampus; format: in vivo, mouse
Procedure: We also measured the effect of (1-3)IGF1 treatment on neuron soma size in hippocampus. Mice were treated with (1-3)IGF1 as described above for locomotor activity.

MeCP2 KO mice = assay: Nocturnal activity measurements (infrared beam interruptions); format: in vivo, mouse; settings: for nocturnal locomotor activity, beam interruptions over 10 hours (FIG. 4B): 6 to 17 weeks of age
Procedure: as §1

## NCC(=O)N1CCC[C@H]1C(=O)N[C@@H](CCC(=O)O)C(=O)O [(1-3)IGF-1, glycyl-L-prolyl-L-glutamic acid]
Synaptic transmission
  synaptic activity / synaptic transmission levels (FIG. 9A): striking enhancements of synaptic activity
Overall brain weight
  overall brain weight: small changes were seen
[1]; KO-T compared to KO, treated two weeks, mice 28-32 days old
  mean EPSC amplitude per neuron, across all cells (FIG. 1C): modestly but significantly increased
[1]; MeCP2−/y mice, 0.01 mg/g body weight IP daily for 2 weeks, P15 to P28-P32, vs vehicle-treated MeCP2−/y
  spontaneous EPSC amplitude (FIG. 1B): significantly larger in amplitude
[1]; between WT, and KO and KO-T groups
  distributions of intervals between EPSC events (EPSC frequency, FIG. 1D): subtly but significantly modified
[2]; MeCP2 KO animals, treated as for locomotor activity
  average soma size (cell perimeter, FIG. 7): increased average soma size in KO animals
[2]; as a result of the knockout or treatment (Discussion)
  size of cell bodies: no change was observed
[2]; wild type animals treated
  soma size (cell perimeter, FIG. 7): had no effect on soma size in wild type animals
MeCP2 KO mice; MeCP2 KO mice, 0.01 mg/g IP daily from P15, vs vehicle KO
  nocturnal locomotor activity, beam interruptions over 10 hours (FIG. 4B): elevated these levels; also recorded: more active than vehicle-treated KO animals (KO) but not as active as WT
MeCP2 KO mice; wild-type mice treated (WT-T) vs WT
  nocturnal locomotor activity, beam interruptions over 10 hours (FIG. 4B): failing to increase activity in wild-type animals; also recorded: not significantly more active than WT
MeCP2 KO mice; young mice, 4 to 5 weeks of age
  nocturnal locomotor activity, beam interruptions over 10 hours (FIG. 6): treatment did not change activity levels
